Test results taken from PMC8887546, “Design and Synthesis of Brain Penetrant Glycopeptide Analogues of PACAP With Neuroprotective Potential for Traumatic Brain Injury and Parkinsonism” (Frontiers in drug discovery, 2022).
Like-named read-outs stand apart in the source and are kept apart here.

How the values were obtained:
human PAC1 receptor = biological target: T1, human PAC1 receptor (Homo sapiens, UniProt P41586); experiment: cAMP stimulation in CHO cells expressing PAC1; type: cell-based; details: for Emax: CHO
T1 construct: expressed in transfected cells; host or cells: CHO cells (G418 selection)
T1 sequence (P41586 21-468): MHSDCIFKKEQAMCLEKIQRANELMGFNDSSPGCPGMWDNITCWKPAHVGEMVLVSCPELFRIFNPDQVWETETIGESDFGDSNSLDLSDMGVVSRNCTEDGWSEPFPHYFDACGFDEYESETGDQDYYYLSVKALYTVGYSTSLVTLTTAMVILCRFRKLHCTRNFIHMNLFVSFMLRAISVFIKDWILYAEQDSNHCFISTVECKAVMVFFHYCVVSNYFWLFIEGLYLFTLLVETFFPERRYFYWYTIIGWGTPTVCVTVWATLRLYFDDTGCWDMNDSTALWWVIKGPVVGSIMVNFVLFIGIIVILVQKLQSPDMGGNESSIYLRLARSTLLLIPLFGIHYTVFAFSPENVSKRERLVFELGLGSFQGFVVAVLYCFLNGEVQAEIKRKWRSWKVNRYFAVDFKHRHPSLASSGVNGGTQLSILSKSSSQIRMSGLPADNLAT
Experimental: Briefly, human PAC1, VPAC1, and VPAC2 receptors expressed in CHO cells were used for all experiments. Cells were grown in 50:50 DMEM-F12 medium with 10% heat-inactivated fetal bovine serum, 1X penicillin-streptomycin supplement, and 500 μg/ml G418 (neomycin) to maintain selection (all from ThermoFisher) at 37°C with 5% CO2 atmosphere. For the cAMP assay, cells were seeded at 20,000 cells/well in a 96 well plate, recovered overnight, then serum starved for 4 h. The cells were then incubated with 500 μM IBMX for 20 min, followed by agonist concentration curves in 500 μM IBMX media for 10 min. The reaction was terminated, boiled, then collected, followed by competition with 7 μg of bovine protein kinase A (Sigma-Aldrich) and ∼1 pmol of ^3H-cAMP (PerkinElmer). The assay was incubated at room temp for 1 h, then collected onto GF/B filter plates and the data read using a MicroBeta2 scintillation counter (PerkinElmer).

human VPAC1 receptor = biological target: T2, human VPAC1 receptor (Homo sapiens, UniProt P32241); experiment: cAMP stimulation in CHO cells expressing VPAC1; type: cell-based
T2 construct: expressed in transfected cells; host or cells: CHO cells (G418 selection)
T2 sequence (P32241 31-457): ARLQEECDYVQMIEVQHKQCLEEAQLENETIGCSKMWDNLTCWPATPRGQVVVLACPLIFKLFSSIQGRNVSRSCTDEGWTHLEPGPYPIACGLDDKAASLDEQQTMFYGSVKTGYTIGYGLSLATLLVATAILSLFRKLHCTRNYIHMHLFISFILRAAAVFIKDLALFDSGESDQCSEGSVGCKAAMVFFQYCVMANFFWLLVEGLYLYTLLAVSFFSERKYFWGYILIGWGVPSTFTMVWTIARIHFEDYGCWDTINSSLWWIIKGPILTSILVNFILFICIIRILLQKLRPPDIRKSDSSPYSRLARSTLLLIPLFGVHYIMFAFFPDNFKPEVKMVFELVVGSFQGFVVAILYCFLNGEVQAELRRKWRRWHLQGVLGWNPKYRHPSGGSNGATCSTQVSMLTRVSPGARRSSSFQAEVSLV

Emax (human PAC1 receptor) [%] | Emax (human VPAC1 receptor; CHO; read-out: VPAC1 Emax) [%] | Molecule | also measured
74.3 ± 9.7 |  | CC[C@H](C)[C@H](NC(=O)CNC(=O)[C@H](CC(=O)O)NC(=O)[C@H](CO)NC(=O)[C@@H](N)Cc1c[nH]cn1)C(=O)N[C@@H](Cc1ccccc1)C(=O)N[C@H](C(=O)N[C@@H](CC(=O)O)C(=O)N[C@@H](CO)C(=O)N[C@@H](Cc1ccc(O)cc1)C(=O)N[C@@H](CO)C(=O)N[C@@H](CCCNC(=N)N)C(=O)N[C@@H](Cc1ccc(O)cc1)C(=O)N[C@@H](CCCNC(=N)N)C(=O)N[C@@H](CCCCN)C(=O)N[C@@H](CCC(N)=O)C(=O)N[C@@H](CC(C)C)C(=O)N[C@@H](C)C(=O)N[C@H](C(=O)N[C@@H](CCCCN)C(=O)N[C@@H](CCCCN)C(=O)N[C@@H](Cc1ccc(O)cc1)C(=O)N[C@@H](CC(C)C)C(=O)N[C@@H](C)C(=O)N[C@@H](C)C(=O)N[C@H](C(=O)N[C@@H](CC(C)C)C(N)=O)C(C)C)C(C)C)[C@@H](C)O [2LS72–2] | EC50 (human PAC1 receptor): 90.7 nM
95.3 ± 8.1 |  | CC[C@H](C)[C@H](NC(=O)CNC(=O)[C@H](CC(=O)O)NC(=O)[C@@H](CO)NC(=O)[C@@H](N)Cc1c[nH]cn1)C(=O)N[C@@H](Cc1ccccc1)C(=O)N[C@H](C(=O)N[C@@H](CC(=O)O)C(=O)N[C@@H](CO)C(=O)N[C@@H](Cc1ccc(O)cc1)C(=O)N[C@@H](CO)C(=O)N[C@@H](CCCNC(=N)N)C(=O)N[C@@H](Cc1ccc(O)cc1)C(=O)N[C@@H](CCCNC(=N)N)C(=O)N[C@@H](CCCCN)C(=O)N[C@@H](CCC(N)=O)C(=O)N[C@@H](CC(C)C)C(=O)N[C@@H](C)C(=O)N[C@H](C(=O)N[C@@H](CCCCN)C(=O)N[C@@H](CCCCN)C(=O)N[C@@H](Cc1ccc(O)cc1)C(=O)N[C@@H](CC(C)C)C(=O)N[C@@H](C)C(=O)N[C@@H](C)C(=O)N[C@H](C(=O)N[C@@H](CC(C)C)C(N)=O)C(C)C)C(C)C)[C@@H](C)O [2LS72–3] | EC50 (human PAC1 receptor): 48.6 ± 32 nM
 |  | CCC[C@H](NC(=O)[C@H](CCC(N)=O)NC(=O)[C@H](CCCCN)NC(=O)[C@H](CCCNC(=N)N)NC(=O)[C@H](Cc1ccc(O)cc1)NC(=O)[C@H](CCCNC(=N)N)NC(=O)[C@H](CO)NC(=O)[C@H](Cc1ccc(O)cc1)NC(=O)[C@H](CO)NC(=O)[C@H](CC(=O)O)NC(=O)[C@H](C)NC(=O)[C@H](Cc1ccccc1)NC(=O)[C@@H](NC(=O)CNC(=O)[C@H](CC(=O)O)NC(=O)[C@@H](CO)NC(=O)[C@@H](N)Cc1c[nH]cn1)[C@@H](C)CC)C(=O)N[C@@H](C)C(=O)N[C@H](C(=O)N[C@@H](CCCCN)C(=O)N[C@@H](CCCCN)C(=O)N[C@@H](Cc1ccc(O)cc1)C(=O)N[C@@H](CC(C)C)C(=O)N[C@@H](C)C(=O)N[C@@H](C)C(=O)N[C@H](C(=O)N[C@@H](CO[C@@H]1O[C@H](CO)[C@@H](O)[C@H](O)[C@H]1O)C(N)=O)C(C)C)C(C)C [CRA3004] | EC50 (human VPAC1 receptor): 1370 nM; Emax (human VPAC1 receptor; CHO, read-out: VPAC1 Emax): 85%
 | 78 | CCC[C@H](NC(=O)[C@H](CCC(N)=O)NC(=O)[C@H](CCCCN)NC(=O)[C@H](CCCNC(=N)N)NC(=O)[C@H](Cc1ccc(O)cc1)NC(=O)[C@H](CCCNC(=N)N)NC(=O)[C@H](CO)NC(=O)[C@H](Cc1ccc(O)cc1)NC(=O)[C@H](CO)NC(=O)[C@H](CC(=O)O)NC(=O)[C@H](C)NC(=O)[C@H](Cc1ccccc1)NC(=O)[C@@H](NC(=O)CNC(=O)[C@H](CC(=O)O)NC(=O)[C@@H](CO)NC(=O)[C@@H](N)Cc1c[nH]cn1)[C@@H](C)CC)C(=O)N[C@@H](C)C(=O)N[C@H](C(=O)N[C@@H](CCCCN)C(=O)N[C@@H](CCCCN)C(=O)N[C@@H](Cc1ccc(O)cc1)C(=O)N[C@@H](CC(C)C)C(=O)N[C@@H](C)C(=O)N[C@@H](C)C(=O)N[C@@H](CO[C@@H]1O[C@H](CO)[C@@H](O)[C@H](O)[C@H]1O)C(=O)N[C@@H](CC(C)C)C(N)=O)C(C)C [CRA3005] | EC50 (human VPAC1 receptor; read-out: VPAC1 EC50): 1620 nM
78 | 103 | CCC[C@H](NC(=O)[C@H](CCC(N)=O)NC(=O)[C@H](CCCCN)NC(=O)[C@H](CCCNC(=N)N)NC(=O)[C@H](Cc1ccc(O)cc1)NC(=O)[C@H](CCCNC(=N)N)NC(=O)[C@H](CO)NC(=O)[C@H](Cc1ccc(O)cc1)NC(=O)[C@H](CO)NC(=O)[C@H](CC(=O)O)NC(=O)[C@@H](NC(=O)[C@H](Cc1ccccc1)NC(=O)[C@@H](NC(=O)CCCNC(=O)[C@H](CC(=O)O)NC(=O)[C@@H](CO)NC(=O)[C@@H](N)Cc1c[nH]cn1)[C@@H](C)CC)[C@@H](C)O)C(=O)N[C@@H](C)C(=O)N[C@H](C(=O)N[C@@H](CCCCN)C(=O)N[C@@H](CCCCN)C(=O)N[C@@H](Cc1ccc(O)cc1)C(=O)N[C@@H](CC(C)C)C(=O)N[C@@H](C)C(=O)N[C@@H](C)C(=O)N[C@H](C(=O)N[C@@H](CC(C)C)C(=O)N[C@@H](CO[C@@H]1O[C@H](CO)[C@@H](O)[C@H](O)[C@H]1O)C(N)=O)C(C)C)C(C)C [CRA3006] | 
97 | 78 | CCC[C@H](NC(=O)[C@H](CCC(N)=O)NC(=O)[C@H](CCCCN)NC(=O)[C@H](CCCNC(=N)N)NC(=O)[C@H](Cc1ccc(O)cc1)NC(=O)[C@H](CCCNC(=N)N)NC(=O)[C@H](CO)NC(=O)[C@H](Cc1ccc(O)cc1)NC(=O)[C@H](CO)NC(=O)[C@H](CC(=O)O)NC(=O)[C@@H](NC(=O)[C@H](Cc1ccccc1)NC(=O)[C@@H](CCC)NC(=O)CNC(=O)[C@H](CC(=O)O)NC(=O)[C@@H](CO)NC(=O)[C@@H](N)Cc1c[nH]cn1)[C@@H](C)O)C(=O)N[C@@H](C)C(=O)N[C@H](C(=O)N[C@@H](CCCCN)C(=O)N[C@@H](CCCCN)C(=O)N[C@@H](Cc1ccc(O)cc1)C(=O)N[C@@H](CC(C)C)C(=O)N[C@@H](C)C(=O)N[C@@H](C)C(=O)N[C@H](C(=O)N[C@@H](CC(C)C)C(=O)N[C@@H](CO[C@@H]1O[C@H](CO)[C@@H](O)[C@H](O)[C@H]1O)C(N)=O)C(C)C)C(C)C [CRA3020] | 
144 ± 20.7 |  | CC[C@H](C)[C@H](NC(=O)CNC(=O)[C@H](CC(=O)O)NC(=O)[C@H](CO)NC(=O)[C@@H](N)Cc1c[nH]cn1)C(=O)N[C@@H](Cc1ccccc1)C(=O)N[C@H](C(=O)N[C@@H](CC(=O)O)C(=O)N[C@@H](CO)C(=O)N[C@@H](Cc1ccc(O)cc1)C(=O)N[C@@H](CO)C(=O)N[C@@H](CCCNC(=N)N)C(=O)N[C@@H](Cc1ccc(O)cc1)C(=O)N[C@@H](CCCNC(=N)N)C(=O)N[C@@H](CCCCN)C(=O)N[C@@H](CCC(N)=O)C(=O)N[C@@H](CC(C)C)C(=O)N[C@@H](C)C(=O)N[C@H](C(=O)N[C@@H](CCCCN)C(=O)N[C@@H](CCCCN)C(=O)N[C@@H](Cc1ccc(O)cc1)C(=O)N[C@@H](CC(C)C)C(=O)N[C@@H](C)C(=O)N[C@@H](C)C(=O)N[C@H](C(=O)N[C@@H](CC(C)C)C(=O)N[C@@H](CO[C@@H]1O[C@H](CO)[C@@H](O[C@@H]2O[C@H](CO)[C@H](O)[C@H](O)[C@H]2O)[C@H](O)[C@H]1O)C(N)=O)C(C)C)C(C)C)[C@@H](C)O [Compound 2LS80Lact] | 
 |  | PACAP6–38 [reference compound] | Antagonism of PAC1 (human PAC1 receptor; cAMP assay in CHO cells): unable to demonstrate antagonism
